In article PMC5832243, “The importance of negative determinants as modulators of CK2 targeting. The lesson of Akt2 S131” (PLoS ONE, 2018):

Experiments:
Type in all cases: biochemical
recombinant CK2 α2β2 = biological target: T1, recombinant CK2 α2β2 (Homo sapiens, UniProt P67870+P68400); test: CK2 kinase assay, phosphorylation of synthetic peptides (33P, phosphocellulose filters); conditions: for Phosphorylation by CK2, time course (in words): 0-120 min incubation with CK2 (Fig 1A); for Phosphorylation by CK2: summary class of level of phosphorylation by CK2 (Table 4); for Effect of residue replacement in the Akt2 peptide on phosphorylation by CK2 (in words): 10 min with CK2, % of cpm of Akt1 wt peptide, means of 4 experiments (Fig 2A)
T1 construct: made in house
T1 sequence (P68400 whole entry): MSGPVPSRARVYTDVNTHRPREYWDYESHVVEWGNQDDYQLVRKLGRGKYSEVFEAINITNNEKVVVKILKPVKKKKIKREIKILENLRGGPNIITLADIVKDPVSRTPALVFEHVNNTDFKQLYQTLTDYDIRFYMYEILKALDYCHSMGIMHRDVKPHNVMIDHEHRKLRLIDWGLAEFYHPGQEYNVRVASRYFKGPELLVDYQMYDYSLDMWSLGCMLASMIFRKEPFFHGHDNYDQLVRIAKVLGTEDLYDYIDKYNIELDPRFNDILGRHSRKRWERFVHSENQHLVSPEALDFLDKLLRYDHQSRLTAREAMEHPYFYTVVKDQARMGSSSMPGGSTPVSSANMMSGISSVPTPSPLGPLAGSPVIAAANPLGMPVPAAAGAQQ
T1 sequence (P67870 whole entry partner): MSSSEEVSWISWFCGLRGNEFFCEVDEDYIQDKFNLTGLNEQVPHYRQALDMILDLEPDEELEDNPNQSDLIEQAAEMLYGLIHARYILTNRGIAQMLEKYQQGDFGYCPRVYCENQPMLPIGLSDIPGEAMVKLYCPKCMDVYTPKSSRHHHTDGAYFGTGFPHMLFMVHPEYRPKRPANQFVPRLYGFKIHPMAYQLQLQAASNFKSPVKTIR
Method: Recombinant CK2α and CK2 α2β2 were expressed, purified and kindly donated by Dr. Stefania Sarno (Padova, Italy) and Andrea Venerando (Padova, Italy).
Phosphorylation of synthetic peptides was performed with recombinant CK2 α2β2 (0.025 μg) incubated at 30°C in a final volume of 20 μl containing 50 mM Tris/HCl (pH 7.5), 100 mM NaCl, 10 mM MgCl2, the indicated concentrations of peptides, and 20 μM [γ^33P-ATP] (5000–10000 cpm/pmol). Assays were stopped by spotting onto phosphocellulose filters. Filters were washed four times in 0.5% orthophosphoric acid before counting.

[1] = tested on: Recombinant human PLK3-GST; test: PLK3 kinase assay on substrate peptides (33P, phosphocellulose filters); conditions: 1mM peptide, 1.5 μg PLK3, 10 min, 37°C, 20 μM [γ-33P]ATP; range according to the specific radioactivity; no-peptide control 2800-9000 cpm
Method: Recombinant human PLK3-GST (Polo-like kinase3 - Glutathione S-transferase), cloned in PGEX-4T1 vector, was produced in BL21 cells and purified by glutathione-Sepharose affinity chromatography, eluted by an elution buffer composed of 50mM Hepes, pH 8.0 and 20mM reduced glutathione. Purity was assessed by SDS-PAGE and Comassie blue staining.
1.5 μg of purified recombinant-PLK3 were incubated with the substrate peptides for 10 min at 37°C in 20 μl of kinase assay buffer containing 20 mM Tris-HCl pH 7.5, 10 mM MgCl2, 5mM DTT (dithiothreitol), 20 μM [γ-^33P]ATP (2000-6000 cpm/pmol). Assays were stopped by spotting onto phosphocellulose filters. Filters were washed four times in 0.5% orthophosphoric acid before scintillation counting.

CK2 = test: Phospho-aminoacid determination after CK2 phosphorylation (acid hydrolysis, high-voltage paper electrophoresis); conditions: 2 mM peptide, 20 or 120 min with CK2; only faint traces of phospho-threonine (Fig 2C)
Method: For the identification of the amino acids phosphorylated by CK2 in Akt2 peptide, after phosphorylation samples were hydrolyzed by incubation for 4 h at 110°C in 6 N HCl, then subjected to high-voltage paper electrophoresis at pH 1.9 for 2.5 h, in the presence of nonradioactive phospho-amino acids, as migration reference. Radioactivity was detected by digital autoradiography (Cyclone plus storage phosphor system, PerkinElmer), while migration of standard references was detected by ninhydrin staining.

| Substance | Phosphorylation by CK2 (recombinant CK2 α2β2) | Effect of residue replacement in the Akt2 peptide on phosphorylation by CK2 (in words) (recombinant CK2 α2β2) | also measured |
| --- | --- | --- | --- |
| R3GSPSDNSGAEEMEV [Akt1(wt)] | + |  | Phosphorylation by CK2, time course (in words) (recombinant CK2 α2β2): good substrate |
| R3GSPSDNSTAEEMEV [Akt1GT, Akt1 peptide with G at n+1 replaced by T] | - (or not (-)) |  |  |
| R3GSPSDNSTTEEMEV [Akt2N, Akt2 peptide with S at n-1 replaced by N] | - (or not (-)) | no beneficial effect |  |
| R3GSPSDSSATEEMEV [Akt2TA, Akt2 peptide with T at n+1 replaced by A] | + |  |  |
| R3GSPSDSSGTEEMEV [Akt2TG, Akt2 peptide with T at n+1 replaced by G] | + | comparable to that of the Akt1 peptide |  |
| R3GSPSDSSSTEEMEV [Akt2TS, Akt2 peptide with T at n+1 replaced by S] | + |  |  |
| R3GSPSDSSTAEEMEV [Akt2A, Akt2 peptide with T at n+2 replaced by A] | - (or not (-)) | no beneficial effect |  |
| R3GSPSDSSTTEEMEV [Akt2(wt)] | - (or not (-)) |  | cpm detected in PLK3 assay [1]: 50000-150000 cpm; Phospho-aminoacid accounting for phosphorylation by CK2 (CK2): entirely accounted for by phospho-serine; Phosphorylation by CK2, time course (in words) (recombinant CK2 α2β2): negligible extent; drop in phosphorylation efficiency in comparison to the Akt1 peptide (recombinant CK2 α2β2; from Km and Vmax of Fig 1B): ~10 fold |
